Source: patent publication US20110045101A1, “FUNGICIDAL SUBSTITUTED AZOLES” (E.I. Du Pont De Nemours and Company, priority 2009, published 2011)
Marks after values point to notes of the source that are not given here.

Legend:
Assay type in all cases: in vivo
Conditions in all cases: 100 = 100% disease control
[1] = test system: Alternaria solani; assay: Test D: tomato early blight, sprayed the day before inoculation, visual disease rating
Source text: (§1) General protocol for preparing test suspensions for Tests A-J: The test compounds were first dissolved in acetone in an amount equal to 3% of the final volume and then suspended at the desired concentration (in ppm) in acetone and purified water (50/50 mix) containing 250 ppm of the surfactant Trem® 014 (polyhydric alcohol esters). The resulting test suspensions were then used in tests A-J. Spraying a 200 ppm test suspension to the point of run-off on the test plants was the equivalent of a rate of 500 g/ha. […] The test suspension was sprayed to the point of run-off on wheat seedlings. […] A dash (-) indicates no test results. All results are for 200 ppm except where followed by “*”, which indicates 40 ppm.

[2] = test system: Botrytis cinerea; assay: Test C: tomato Botrytis on tomato seedlings, sprayed the day before inoculation, visual disease rating
Source text: General protocol for preparing test suspensions for Tests A-J: The test compounds were first dissolved in acetone in an amount equal to 3% of the final volume and then suspended at the desired concentration (in ppm) in acetone and purified water (50/50 mix) containing 250 ppm of the surfactant Trem® 014 (polyhydric alcohol esters). The resulting test suspensions were then used in tests A-J. Spraying a 200 ppm test suspension to the point of run-off on the test plants was the equivalent of a rate of 500 g/ha. […] The test suspension was sprayed to the point of run-off on tomato seedlings. […] A dash (-) indicates no test results. All results are for 200 ppm except where followed by “*”, which indicates 40 ppm.

[3] = test system: Puccinia recondita f. sp. tritici; assay: Test I: wheat leaf rust on wheat seedlings, sprayed the day before inoculation, visual disease rating
Source text: as §1

[4] = test system: Septoria tritici; assay: Test G: wheat leaf blotch on wheat seedlings, sprayed the day before inoculation, visual disease rating
Source text: General protocol for preparing test suspensions for Tests A-J: The test compounds were first dissolved in acetone in an amount equal to 3% of the final volume and then suspended at the desired concentration (in ppm) in acetone and purified water (50/50 mix) containing 250 ppm of the surfactant Trem® 014 (polyhydric alcohol esters). The resulting test suspensions were then used in tests A-J. Spraying a 200 ppm test suspension to the point of run-off on the test plants was the equivalent of a rate of 500 g/ha. […] The test suspension was sprayed to the point of run-off on wheat seedlings. The following day the seedlings were inoculated with a spore suspension of Septoria tritici (the causal agent of wheat leaf blotch) and incubated in saturated atmosphere at 24° C. for 48 h, and then moved to a growth chamber at 20° C. for 19 days, after which time visual disease ratings were made. […] A dash (-) indicates no test results. All results are for 200 ppm except where followed by “*”, which indicates 40 ppm.

[5] = test system: Erysiphe graminis f. sp. tritici; assay: Test J: wheat powdery mildew on wheat seedlings, sprayed the day before inoculation, visual disease rating
Source text: as §1

[6] = test system: Septoria nodorum; assay: Test F: wheat glume blotch on wheat seedlings, sprayed the day before inoculation, visual disease rating
Source text: as §1

[7] = 200 ppm, 0 = no control relative to controls
[8] = 40 ppm (marked *), 0 = no control

COc1cc(F)c(-c2c(C)nc(C)n2-c2ccc(Cl)c(F)c2)c(F)c1 [compound 44]
Test D disease control rating ([1]; 40 ppm (marked *)): 100* %
Test C disease control rating ([2]; 40 ppm (marked *)): 99* %
Test I disease control rating ([3]; 40 ppm (marked *)): 99* %
Test G disease control rating ([4]; 40 ppm (marked *)): 92* %
Test J disease control rating ([5]; 40 ppm (marked *)): 98* %
Test F disease control rating ([6]; 40 ppm (marked *)): 40* %

Cc1ccc(-n2c(Br)nc(Cl)c2-c2c(F)cccc2Cl)cc1 [compound 186]
Test D disease control rating ([1]; 200 ppm, 0 = no control): 88%
Test C disease control rating ([2]; 200 ppm, 0 = no control): 98%
Test I disease control rating ([3]; 200 ppm, 0 = no control): 100%
Test G disease control rating ([4]; 200 ppm, 0 = no control): 97%
Test J disease control rating ([5]; 200 ppm, 0 = no control): 100%
Test F disease control rating ([6]; 200 ppm, 0 = no control): 0%

Cc1nc(Cl)c(-c2c(F)cccc2F)n1Cc1ccc(Cl)c(F)c1 [compound 120]
Test D disease control rating [1, 7]: 0%
Test C disease control rating [2, 7]: 98%
Test I disease control rating [3, 7]: 90%
Test G disease control rating [4, 7]: 96%
Test J disease control rating [5, 7]: 92%
Test F disease control rating [6, 7]: 0%

Cc1ncn(-c2ccc(Cl)c(F)c2)c1-c1ccccn1 [compound 251]
Test D disease control rating ([1]; 200 ppm, 0 = no control): 0%
Test C disease control rating ([2]; 200 ppm, 0 = no control): 99%
Test I disease control rating ([3]; 200 ppm, 0 = no control): 9%
Test G disease control rating ([4]; 200 ppm, 0 = no control): 81%
Test J disease control rating ([5]; 200 ppm, 0 = no control): 0%
Test F disease control rating ([6]; 200 ppm, 0 = no control): 0%

Fc1cc(F)c(-n2c(Cl)nc(Cl)c2-c2ccc(Cl)cc2)c(F)c1 [compound 204]
Test D disease control rating [1, 8]: 91* %
Test C disease control rating [2, 8]: 90* %
Test I disease control rating [3, 8]: 18* %
Test G disease control rating [4, 8]: 90* %
Test J disease control rating [5, 8]: 26* %
Test F disease control rating [6, 8]: 0* %

Cc1nc(Cl)c(-c2c(F)cccc2F)n1-c1ccc(Cl)c(F)c1 [compound 247]
Test D disease control rating ([1]; 200 ppm, 0 = no control): 100%
Test C disease control rating ([2]; 200 ppm, 0 = no control): 100%
Test I disease control rating ([3]; 200 ppm, 0 = no control): 100%
Test G disease control rating ([4]; 200 ppm, 0 = no control): 97%
Test J disease control rating ([5]; 200 ppm, 0 = no control): 100%
Test F disease control rating ([6]; 200 ppm, 0 = no control): 100%

Fc1ccc(-n2cnc(Cl)c2-c2c(F)cccc2F)cc1F [compound 160]
Test D disease control rating ([1]; 200 ppm, 0 = no control): 93%
Test C disease control rating ([2]; 200 ppm, 0 = no control): 91%
Test I disease control rating ([3]; 200 ppm, 0 = no control): 28%
Test G disease control rating ([4]; 200 ppm, 0 = no control): 93%
Test J disease control rating ([5]; 200 ppm, 0 = no control): 98%
Test F disease control rating ([6]; 200 ppm, 0 = no control): 0%

N#Cc1cc(F)c(-c2c(Cl)ncn2-c2ccc(Cl)cc2)c(F)c1 [compound 193]
Test D disease control rating ([1]; 200 ppm, 0 = no control): 100%
Test C disease control rating ([2]; 200 ppm, 0 = no control): 99%
Test I disease control rating ([3]; 200 ppm, 0 = no control): 97%
Test G disease control rating ([4]; 200 ppm, 0 = no control): 98%
Test J disease control rating ([5]; 200 ppm, 0 = no control): 98%
Test F disease control rating ([6]; 200 ppm, 0 = no control): 0%

Fc1ccc(-c2c(Cl)nc(Br)n2-c2ccc(Cl)cc2)c(Cl)c1 [compound 51]
Test D disease control rating [1, 7]: 100%
Test C disease control rating [2, 7]: 94%
Test I disease control rating [3, 7]: 97%
Test G disease control rating [4, 7]: 94%
Test J disease control rating [5, 7]: 99%
Test F disease control rating [6, 7]: 100%

Fc1cc(-n2c(Cl)nc(Cl)c2-c2ccncc2F)ccc1Cl [compound 455]
Test D disease control rating [1, 7]: 95%
Test C disease control rating [2, 7]: 99%
Test I disease control rating [3, 7]: 99%
Test G disease control rating [4, 7]: 95%
Test J disease control rating [5, 7]: 68%
Test F disease control rating [6, 7]: 0%

Fc1ccc(-n2c(Br)nc(Cl)c2-c2c(F)ccc(F)c2F)cc1 [compound 134]
Test D disease control rating [1, 7]: 100%
Test C disease control rating [2, 7]: 97%
Test I disease control rating [3, 7]: 99%
Test G disease control rating [4, 7]: 93%
Test J disease control rating [5, 7]: 100%
Test F disease control rating [6, 7]: 99%

Cc1ccc(-n2c(C)nc(Cl)c2-c2c(F)cccc2Cl)cc1 [compound 190]
Test D disease control rating ([1]; 200 ppm, 0 = no control): 100%
Test C disease control rating ([2]; 200 ppm, 0 = no control): 97%
Test I disease control rating ([3]; 200 ppm, 0 = no control): 100%
Test G disease control rating ([4]; 200 ppm, 0 = no control): 93%
Test J disease control rating ([5]; 200 ppm, 0 = no control): 100%
Test F disease control rating ([6]; 200 ppm, 0 = no control): 0%

Cc1nc(Cl)c(-c2c(F)cccc2F)n1Cc1ccccc1 [compound 118]
Test D disease control rating [1, 7]: 100%
Test C disease control rating [2, 7]: 99%
Test I disease control rating [3, 7]: 99%
Test G disease control rating [4, 7]: 94%
Test J disease control rating [5, 7]: 100%
Test F disease control rating [6, 7]: 60%

Fc1cc(-n2c(Cl)nc(Cl)c2-c2c(F)cccc2Cl)ccc1Cl [compound 230]
Test D disease control rating ([1]; 200 ppm, 0 = no control): 97%
Test C disease control rating ([2]; 200 ppm, 0 = no control): 99%
Test I disease control rating ([3]; 200 ppm, 0 = no control): 94%
Test G disease control rating ([4]; 200 ppm, 0 = no control): 99%
Test J disease control rating ([5]; 200 ppm, 0 = no control): 99%
Test F disease control rating ([6]; 200 ppm, 0 = no control): 0%

Fc1ccc(F)c(-c2c(Cl)ncn2-c2ccc(Cl)cc2)c1Cl [compound 74]
Test D disease control rating [1, 7]: 96%
Test C disease control rating [2, 7]: 98%
Test I disease control rating [3, 7]: 99%
Test G disease control rating [4, 7]: 98%
Test J disease control rating [5, 7]: 99%
Test F disease control rating [6, 7]: 31%

Fc1ccc(SCCl)c(F)c1-c1c(Cl)ncn1-c1ccc(Cl)cc1 [compound 232]
Test D disease control rating ([1]; 200 ppm, 0 = no control): 0%
Test C disease control rating ([2]; 200 ppm, 0 = no control): 0%
Test I disease control rating ([3]; 200 ppm, 0 = no control): 9%
Test G disease control rating ([4]; 200 ppm, 0 = no control): 95%
Test J disease control rating ([5]; 200 ppm, 0 = no control): 0%
Test F disease control rating ([6]; 200 ppm, 0 = no control): 0%

Cc1nc(Cl)c(-c2c(F)cccc2F)n1-c1cnc2ccccc2c1 [compound 199]
Test D disease control rating ([1]; 200 ppm, 0 = no control): 100%
Test C disease control rating ([2]; 200 ppm, 0 = no control): 92%
Test I disease control rating ([3]; 200 ppm, 0 = no control): 98%
Test G disease control rating ([4]; 200 ppm, 0 = no control): 96%
Test J disease control rating ([5]; 200 ppm, 0 = no control): 95%
Test F disease control rating ([6]; 200 ppm, 0 = no control): 100%

COc1cc(F)c(-c2c(Cl)nc(Br)n2-c2cccc(F)c2)c(F)c1 [Compound 256, 2-bromo-4-chloro-5-(2,6-difluoro-4-methoxyphenyl)-1-(3-fluorophenyl)-1H-imidazole]
pest or weed control at 200 ppm ([1]; Alternaria solani, 168 h, 200 ppm, 0 = no control): 100%
pest or weed control at 200 ppm ([2]; Botrytis cinerea, 120 h, 200 ppm, 0 = no control): 100%
pest or weed control at 200 ppm ([3]; Puccinia recondita, 168 h, 200 ppm, 0 = no control): 100%
pest or weed control at 200 ppm ([4]; Zymoseptoria tritici, 504 h, 200 ppm, 0 = no control): 97%
pest or weed control at 200 ppm ([5]; Blumeria graminis, 168 h, 200 ppm, 0 = no control): 99%
pest or weed control at 200 ppm ([6]; Parastagonospora nodorum, 264 h, 200 ppm, 0 = no control): 100%

Fc1ccc(-n2c(Br)nc(Cl)c2-c2c(F)cccc2Cl)cc1 [compound 185]
Test D disease control rating ([1]; 200 ppm, 0 = no control): 100%
Test C disease control rating ([2]; 200 ppm, 0 = no control): 99%
Test I disease control rating ([3]; 200 ppm, 0 = no control): 100%
Test G disease control rating ([4]; 200 ppm, 0 = no control): 94%
Test J disease control rating ([5]; 200 ppm, 0 = no control): 99%
Test F disease control rating ([6]; 200 ppm, 0 = no control): 78%
